The values that follow come from ChEMBL document CHEMBL5620372, “Pharmacological inhibition of ferroptosis as a therapeutic target for sepsis-associated organ damage” (Eur J Med Chem, 2023).

Each structure is given as a SMILES string.

Series [1] can be described thus: Oral bioavailability in human. The series is classed as ADME, organism-based. The conditions noted are these: in vivo.
The nature of series [2]: Half life in human plasma. The series is classed as ADME, cell-free.
Series [3] can be described thus: Cmax in human plasma. It is filed as ADME, cell-free.
Series [4] can be described thus: Oral bioavailability in human at 2 mg/kg. It is filed as ADME, organism-based. The conditions noted are these: in vivo.
Series [5] is described as follows: Drug recovery in rat urine at 10 mg/kg, IG measured after 36 hrs. It is filed as ADME, organism-based. The conditions noted are these: po, read-out: Drug recovery.
Series [6] can be described thus: Drug recovery in rat feces at 10 mg/kg, IG measured after 36 hrs. The conditions noted are these: faeces, po, read-out: Drug recovery. The series is classed as ADME, organism-based.

For orientation: bioavailability means the share of a dose that reaches the circulation, judged against a reference dose that is usually intravenous. The term half-life denotes how long it takes for the measured level to halve. `CC(=O)Nc1ccc(O)cc1` [ACETAMINOPHEN] showed a bioavailability in series [1] of 86%. The compound further came in with a half-life in series [2] of 12 min.

By Cmax is commonly meant the highest concentration seen after dosing. `O=c1c(-c2ccc(O)cc2)coc2c([C@@H]3O[C@H](CO)[C@@H](O)[C@H](O)[C@H]3O)c(O)ccc12` [PUERARIN] showed a Cmax in series [3] of 0.14 µg/mL. In series [4], this compound came in with a bioavailability of 7%.

On to `Oc1ccc(/C=C/c2cc(O)cc(O)c2)cc1` [RESVERATROL], for which the dose excreted at 36 h in series [5] is 0.15%; in series [6], 0.07%.
